The source of these data is PMC8237267 (Journal of Medicinal Chemistry, 2021).

pIC50: −log10 of the molar value. “And” between values parts separate entries of the source, which are not always exact repeats. Equal values may be shown once. Read-outs that look alike come from different tables or passages of the source. Bounds are passed on as bounds.

For one series, the target named is T1, HDAC3 (Homo sapiens, UniProt O15379).
T1 construct: The full-length human HDACs were recombinantly expressed and purified from SF9 insect cells; host or cells: SF9 insect cells
In words: HDAC EMSA activity assay (Nanosyn). In kind it is biochemical. The settings on record: recombinant enzyme, read-out: In vitro IC50 HDAC3. (In general: A gel shift assay detects complexes by their altered migration in electrophoresis.)

The target in the next series is T2, HDAC8 (Homo sapiens, UniProt Q9BY41).
T2 construct: The full-length human HDACs were recombinantly expressed and purified from SF9 insect cells; host or cells: SF9 insect cells
T2 sequence (Q9BY41 1-377): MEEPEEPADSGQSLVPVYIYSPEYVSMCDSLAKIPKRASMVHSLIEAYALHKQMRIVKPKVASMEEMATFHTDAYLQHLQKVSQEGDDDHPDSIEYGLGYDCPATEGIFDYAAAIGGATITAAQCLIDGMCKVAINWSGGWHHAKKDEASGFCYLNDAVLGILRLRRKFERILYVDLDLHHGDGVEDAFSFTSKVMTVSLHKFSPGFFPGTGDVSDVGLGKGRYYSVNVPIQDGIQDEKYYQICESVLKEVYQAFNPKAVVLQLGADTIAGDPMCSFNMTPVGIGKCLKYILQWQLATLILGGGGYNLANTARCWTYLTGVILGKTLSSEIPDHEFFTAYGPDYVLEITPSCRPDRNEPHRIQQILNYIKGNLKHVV
In words: HDAC EMSA activity assay (Nanosyn). As to conditions: recombinant enzyme, EMSA (Nanosyn); read-out: In vitro IC50 HDAC8. In kind it is biochemical.

The next series deals with T3, HDAC11 (Homo sapiens, UniProt Q96DB2).
T3 construct: The full-length human HDACs were recombinantly expressed and purified from SF9 insect cells; host or cells: SF9 insect cells
T3 sequence (Q96DB2 1-347): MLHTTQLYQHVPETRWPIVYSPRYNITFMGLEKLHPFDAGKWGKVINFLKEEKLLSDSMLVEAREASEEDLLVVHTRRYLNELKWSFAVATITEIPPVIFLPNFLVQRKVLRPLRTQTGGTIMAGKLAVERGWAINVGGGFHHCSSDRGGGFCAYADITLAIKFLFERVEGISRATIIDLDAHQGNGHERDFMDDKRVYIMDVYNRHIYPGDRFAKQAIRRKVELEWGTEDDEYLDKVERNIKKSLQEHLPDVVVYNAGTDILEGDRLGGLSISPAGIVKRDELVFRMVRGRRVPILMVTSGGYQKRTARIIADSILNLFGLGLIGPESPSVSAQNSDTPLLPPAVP
Kind of series: HDAC EMSA activity assay (Nanosyn). It is filed as biochemical. As to conditions: recombinant enzyme, read-out: In vitro IC50 HDAC11.

The next series relates to MV4-11. Kind of series: Cytotoxicity assay (Cell Titer-Blue, 72 h). In kind it is cell-based. As to conditions: Homo sapiens; MV4-11 (AML); read-out: In cellulo IC50 MV4-11.
Another series concerns MRC-9. In words: Cytotoxicity assay (Cell Titer-Blue, 72 h). It is filed as cell-based. As to conditions: MRC9; MRC-9 (healthy fibroblasts); read-out: In cellulo IC50 MRC-9. A general note: Alamar Blue is a resazurin reagent that responds to reducing activity.
The nature of series [1]: Glutathione stability / reactivity assay. In kind it is in vitro ADME. As to the method: Although covalent modification of HDAC6 was not observed (Figure S2), the PFBS group is susceptible to nucleophilic aromatic substitution by biological nucleophiles. A previously described high-throughput in vitro glutathione-reactivity assay was conducted, where compounds were incubated in the presence of glutathione (GSH) and the formation of a GSH-compound adduct was monitored over time via LC/MS/MS.[50]
Compound was added to PBS and 5 mM GSH to reach a final concentration of 5 μM. […] Samples were vortexed and centrifuged for 45 min at 3220g. Aliquots were diluted by ultrapure water, and used for LC/MS/MS analysis. Peak area ratios were determined and percent compounds remaining was calculated by the following equation: [drawing 1] where peak area ratio (t min) is the peak area ratio of control and test compounds at t min; peak area ratio0min is the peak area ratio of control and test compounds at the zero time point. In vitro half-life (t1/2) = −(0.693/k).

A short description of series [2]: Stability in mouse plasma. In kind it is in vitro ADME. The arrangement: half-life at 2 h: dose or concentration left out as unconfirmed. As to conditions: read-out: Plasma stability t1/2. As to the method: The plasma stability of the compounds was evaluated in mouse plasma provided from Sigma-Aldrich, Oakville, Canada. The main stock solutions of the compounds were prepared at 10 mM in DMSO, which was diluted to 100 μM in 50% acetonitrile (ACN)/50% water. Aliquots of 356.5 μL of plasma proteins were placed in a heating block and allowed to equilibrate at 37 °C for 5 min. Then, 3.5 μL of 100 μM compound solutions were added to each vial (final concentration of 1 μM). Three quality control (QC) samples at 100, 500, and 1000 nM were prepared in 0.5% ACN. The vial contents were transferred in 50 μL aliquots at time points of 0.5, 5, 10, 20, 30, and 60 mi to a 96-well autosampler plate containing 150 μL of protein precipitation solution. Ice-cold ACN containing internals standards (100 nM glyburide) were used as the protein precipitation solution. After centrifugation at 4 °C, 5500 rpm for 15 min, the supernatant was diluted in MQ water, and injected into the LC/MS/MS for quantitative analysis.
The mobile phase consisted of (A) 0.1% (v/v) formic acid in Milli-Q water; (B) 0.1% (v/v) formic acid in acetonitrile. […] Peak areas were determined from extracted ion chromatograms. The in vitro half-life (t1/2) of parent compounds were determined by regression analysis of the percent parent disappearance vs time curve.

The target in series [3] is T4, HDAC6 (Homo sapiens, UniProt Q9UBN7).
T4 sequence (Q9UBN7 1-1215): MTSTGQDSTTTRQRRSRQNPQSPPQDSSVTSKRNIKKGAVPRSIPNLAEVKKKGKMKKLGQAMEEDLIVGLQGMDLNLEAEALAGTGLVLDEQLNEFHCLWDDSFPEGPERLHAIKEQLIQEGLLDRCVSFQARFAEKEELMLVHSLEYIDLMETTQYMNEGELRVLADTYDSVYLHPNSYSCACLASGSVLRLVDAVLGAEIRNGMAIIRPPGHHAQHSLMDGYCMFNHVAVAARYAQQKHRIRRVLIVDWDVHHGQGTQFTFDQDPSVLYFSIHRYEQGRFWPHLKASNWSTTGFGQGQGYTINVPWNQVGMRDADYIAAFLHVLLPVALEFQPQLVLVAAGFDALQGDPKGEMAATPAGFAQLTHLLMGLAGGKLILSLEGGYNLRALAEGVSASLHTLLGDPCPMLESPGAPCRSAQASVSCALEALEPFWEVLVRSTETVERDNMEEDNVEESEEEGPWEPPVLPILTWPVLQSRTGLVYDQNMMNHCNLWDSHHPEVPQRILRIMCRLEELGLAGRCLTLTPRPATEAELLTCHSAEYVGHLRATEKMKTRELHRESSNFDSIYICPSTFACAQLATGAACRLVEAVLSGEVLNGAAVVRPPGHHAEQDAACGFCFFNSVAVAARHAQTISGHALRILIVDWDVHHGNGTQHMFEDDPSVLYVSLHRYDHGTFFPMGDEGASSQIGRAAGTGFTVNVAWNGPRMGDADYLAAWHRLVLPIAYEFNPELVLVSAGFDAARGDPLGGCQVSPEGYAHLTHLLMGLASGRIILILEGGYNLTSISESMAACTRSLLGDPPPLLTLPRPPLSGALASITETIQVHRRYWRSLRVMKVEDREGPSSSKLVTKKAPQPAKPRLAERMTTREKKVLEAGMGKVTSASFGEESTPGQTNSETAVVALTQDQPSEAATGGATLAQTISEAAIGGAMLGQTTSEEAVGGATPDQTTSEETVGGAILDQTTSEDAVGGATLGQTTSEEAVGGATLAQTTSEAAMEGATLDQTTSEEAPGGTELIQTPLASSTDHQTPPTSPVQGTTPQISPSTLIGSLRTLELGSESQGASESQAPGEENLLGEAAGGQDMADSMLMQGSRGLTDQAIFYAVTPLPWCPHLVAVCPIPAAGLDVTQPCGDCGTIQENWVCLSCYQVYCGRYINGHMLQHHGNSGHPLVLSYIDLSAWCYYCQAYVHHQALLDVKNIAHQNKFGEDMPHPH
In words: HDAC EMSA activity assay (Nanosyn). It is filed as biochemical. The arrangement: The full-length human HDACs were recombinantly expressed and purified from SF9 insect cells; host or cells: SF9 insect cells. As to conditions: for HDAC6 fold-selectivity: over the next closest HDAC isoform tested, * = selectivity ≥ indicated value; for pIC50: EMSA (Nanosyn).

In series [4] the target is T4, HDAC6. Kind of series: Reversibility of inhibition (Koff kinetics), residence time. In kind it is biochemical. As to conditions: compound-HDAC6 complex; read-out: in vitro residence time (1/kobs). An excerpt:
Progress curves were obtained after dilution, and enzyme recovery was fitted with the following equation: % conv = Vs × t + (Vi – Vs)/Kobs app × (1 – exp(−Kobs app × t), in which Vi is the initial velocity, Vs is steady state velocity, and Kobs is the observed rate constant. The obtained Kobs rate constant was used to determine the reversibility of inhibition and calculate residence time as 1/2Tres = ln2 × 1/Kobs.

A short description of series [5]: In vitro stability in mouse hepatocytes. It is filed as in vitro ADME. As to conditions: read-out: Stability in mouse hepatocytes t1/2. The protocol: The inhibitors (and controls) were formulated to concentrations of 100 μM in 50% acetonitrile/50% water. The medium (William’s E Medium supplemented with GlutaMAX) and hepatocyte thawing medium were allowed to reach room temperature and the hepatocytes and thawing medium and centrifuged at 100 g for 10 min. The supernatant was removed, and hepatocytes resuspended in the incubation medium (∼1.5 × 10^6 cells/mL). The cells were diluted to 0.5 × 10^6 viable cells/mL. A volume of 198 μL of hepatocytes was transferred to a 96-well noncoated plate and incubated at 37 °C for 10 min. Following this, 2 μL of the 100 μM test compounds or positive control was transferred into respective wells to start the reaction. At different time points (0, 15, 30, 60, 90, and 120 min), 25 μL aliquots were mixed with 6 volumes (150 μL) of acetonitrile containing internal standard, IS (100 nM alprazolam, 200 nM labetalol, 200 nM caffeine, and 200 nM diclofenac) to terminate the reaction. Samples were vortexed for 5 min and centrifuged for 45 min at 3220g, diluted by ultrapure water, followed by LC/MS/MS analysis. The in vitro half-life (T1/2) was determined by regression analysis of the percent parent disappearance vs time curve (T1/2 = 0.693/k) using Microsoft Excel.

The nature of series [6]: Stability in human hepatocytes. In kind it is in vitro ADME. As to conditions: read-out: t1/2 in human hepatocytes.
The nature of series [7]: Stability in hepatocytes (species not stated). The settings on record: mouse, species not given. In kind it is in vitro ADME. The arrangement: dose or concentration left out as unconfirmed.
Series [8] has as its target T4, HDAC6. In words: Time-dependent IC50 assay with preincubation (0-6 h). It is filed as biochemical. The settings on record: 6 h time-dependent assay. The protocol:
The binding kinetics profile of KT-531 was also investigated by determining the association (kon)/dissociation (koff) rates as well as residence time parameters. The in vitro residence time (1/kobs) for the KT-531–HDAC6 complex was determined to be 23.18 min, as compared to 10.72 min for 1.

The mark [9] stands for this setting: recombinant enzyme, read-out: In vitro IC50 HDAC6.
[10] abbreviates: PBS with 5 mM glutathione (GSH), 5 mM GSH, PBS, read-out: half-life in incubation with GSH.

T1 sequence (O15379 whole entry): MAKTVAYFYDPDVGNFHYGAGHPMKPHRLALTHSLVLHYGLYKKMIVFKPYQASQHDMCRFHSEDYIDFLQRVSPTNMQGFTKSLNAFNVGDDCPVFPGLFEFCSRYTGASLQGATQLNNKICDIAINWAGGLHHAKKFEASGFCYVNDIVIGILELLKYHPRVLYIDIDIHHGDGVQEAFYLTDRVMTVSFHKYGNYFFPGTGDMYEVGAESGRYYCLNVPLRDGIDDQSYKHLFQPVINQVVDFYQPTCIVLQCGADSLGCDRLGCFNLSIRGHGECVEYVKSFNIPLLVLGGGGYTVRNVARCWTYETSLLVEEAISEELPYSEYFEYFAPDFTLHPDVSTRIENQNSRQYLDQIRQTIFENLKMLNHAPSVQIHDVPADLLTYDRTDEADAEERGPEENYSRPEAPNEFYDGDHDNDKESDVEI
T1 sequence (Q9Y618 395-489 partner limits assumed): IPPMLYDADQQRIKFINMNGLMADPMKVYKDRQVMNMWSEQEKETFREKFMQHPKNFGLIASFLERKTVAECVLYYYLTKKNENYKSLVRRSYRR

For orientation: pIC50 means −log10 of the IC50, conventionally taken in molar units. Turning to `O=C(NO)c1ccc(CN(C2CC2)S(=O)(=O)c2c(F)c(F)cc(F)c2F)cc1` [Compound 6, 4-(((N-Cyclopropyl-2,3,5,6-tetrafluorophenyl)sulfonamido)methyl)-N-hydroxybenzamide], the pIC50 is less than 6.00 at HDAC3; 6.42 on HDAC8; less than 6.00 on HDAC11; 5.21 with MV4-11; less than 4.82 in the series with MRC-9; 8.00 at HDAC6 [3] (setting [9]). Besides, the “reactivity with glutathione” value in [1] (GSH adduct formation by LC/MS/MS, KT-531 up to 24 h) is “unreactive toward GSH”. In series [2], the half-life at 2 h stood at 25 min. For the same compound, the HDAC6 fold-selectivity on HDAC6 [3] came out at 37.8 fold.

`O=C(NO)c1ccc(CNC(=O)c2c(F)c(F)c(F)c(F)c2F)cc1` [Compound 1, 2,3,4,5,6-Pentafluoro-N-(4-(hydroxycarbamoyl)benzyl)benzamide]: the pIC50 on HDAC3 was 6.70; at HDAC8, 6.15; on HDAC11, less than 6.00; with MV4-11, 5.73; with MRC-9 it was less than 4.30; on HDAC6 [3] (read-out: IC50 HDAC6) it was 8.23. At HDAC6 [3] (setting [9]), the pIC50 was 8.22. Also, the residence time at HDAC6 [4] came out at 10.7 min. Also, the HDAC6 fold-selectivity on HDAC6 [3] is 36 fold and 36.32 fold.

With `O=C(NO)c1ccc(CN(C2CC2)S(=O)(=O)c2c(F)c(F)c(F)c(F)c2F)cc1` [Compound 5, 4-(((N-Cyclopropyl-2,3,4,5,6-pentafluorophenyl)sulfonamido)methyl)-N-hydroxybenzamide], the pIC50 on HDAC3 is 7.15; on HDAC8 it was 7.54; at HDAC11, 7.33; in the series with MRC-9, less than 4.70; on HDAC6 [3] (read-out: IC50 HDAC6), 9.05. Besides, the half-life at 5 μM in series [1] (setting [10]) is roughly 20 min. For the same compound, the half-life at 2 h, 5 µM in series [1] (setting [10]) was 20 min. Further, the half-life at 1 μM in series [5] is less than 2.26 min. In addition, the half-life in [6] is 3.84 min. For the same compound, in [7], the half-life at 2 h came to 3 min. Besides, the “reversibility of binding (IC50 over preincubation time)” value at HDAC6 [8] is given as “unchanged IC50 values”.
